Here are results for two compounds from patent US20250282764A1, “IMIDAZOLE HETEROCYCLE BASED COMPOUNDS AND METHODS OF TREATING CANCER” (King Abdulaziz University, priority 2024, published 2025).

Molecules are shown by their SMILES. Like-named read-outs stand apart in the source and are kept apart here.

Data set [1] has as its system DLD1. The experiment in a line: CellTiter-Blue cell viability assay, DLD1. The class given is cell-based, human. The following applies: 48 h, 50% cell viability vs untreated, mean of triplicates. The procedure:
(§1) Cell culture of colorectal carcinoma cell lines was performed as follows. DLD-1, HCT116, and HT-29 cells were purchased from CLS Cell Line Service GmbH (Eppelheim, Germany) and cultured in Dulbecco's Modified Eagle Medium (DMEM) high glucose, GlutaMAX™ Supplement, pyruvate (Thermo Fisher Scientific, Paisley, UK) supplemented with 10% fetal bovine serum (FBS; Thermo Fisher Scientific), 200 U/mL penicillin, and 200 μg/ml streptomycin (Thermo Fisher Scientific), at 37° C. with 5% CO2 in a humidified incubator.
(§2) The CellTiter®-Blue Cell Viability assay was acquired from Promega Corporation (Madison, WI, USA). Cell viability assay was performed as follows: DLD-1 (4×10^3/well), HCT116 (4×10^3/well), and HT-29 (7×10^3/well) were incubated with a concentration gradient of compound (Id) ranging from 0.01 to 20 μM, in 96-well plates for 48 h at 37° C. Subsequently, 20 μl CellTiter®-Blue Cell Viability reagent was added to each well and incubated for an additional 2 h for the development of fluorescence. The fluorescence emission was measured at 590 nm using a SpectraMax® i3× Multi-Mode microplate reader (Molecular Devices, LLC, San Jose, CA, USA) and plotted against drug concentrations to determine the mean inhibitory concentration of compound (Id) producing 50% decrease in cell viability (IC50). Experiments were performed in triplicates.
For orientation: The colour change of resazurin is a common sign of viable cells or microbes.

Data set [2] concerns K562. In words: CellTiter-Blue cell viability assay, K562. It counts as cell-based, human. The conditions noted are these: 48 h, mean of triplicates. The procedure: (§3) Cell culture of leukemia cell lines model was performed as follows. HL60, K562, and NB4 cell lines were purchased from CLS Cell Line Service GmbH (Eppelheim, Germany). MV4-11 cell line was purchased from American Type Culture Collection (ATCC; Virginia, USA). KG1α also referred to as KG1a was a gift from Prof. Ghulam Mufti (King College London, UK). Kasumi-1 cell line was purchased from Nawah Scientific (Cairo, Egypt). All cell lines were cultured in Roswell Park Memorial Institute-1640 (RPMI-1640) culture medium supplemented with 10% fetal bovine serum (FBS) (Thermo Fisher Scientific) and 0.1% ciprofloxacin (10 μg/ml; Cipla Limited; Mumbai, India). Cells were maintained in a humidified incubator at 37° C. with 5% CO2.
(§4) Cell viability was determined using the CellTiter-Blue® Cell Viability Assay kit (Promega, Madison, WI, USA). Approximately […] were plated in 96 well plate in the presence of increasing drug concentration in triplicate and incubated for 48 h at 37° C. in a humidified incubator. After the incubation period, 20 μL of the cell titer blue reagent was added to each well and the plate was incubated for additional 2 h for the development of florescence. Florescence was measured at 540Ex/590Em on SpectraMax i3 Multi-Mode Microplate Reader (Molecular Devices, LLC; San Jose, CA, USA). […]

Data set [3] can be described thus: Binding to mouse plasma proteins (equilibrium dialysis). It counts as in vitro ADME. The procedure:
Binding to mouse plasma proteins was determined as follows. The equilibrium dialysis method for determining plasma protein binding was performed using 96-well dialyzer plates with molecular weight cutoff of 5K (Harvard Apparatus, Holliston, MA) and a dual-plate rotator set to maximum speed (Harvard Apparatus, Holliston, MA) located in a 37° C. incubator with a 10% CO2-atmospheric environment. Assays were run in triplicate. The test compound was added to CD-1 mouse plasma (Innovative Research, Novi, MI, sodium heparin added as anticoagulant; pH adjusted to 7.4 with 2N HCl on day of use) in DMSO (final DMSO concentration 0.4%) to give 10 μM final concentration. Drug/plasma mixture and buffer (Dulbecco's phosphate-buffered saline 1× without calcium and magnesium, Mediatech, Inc., Herndon, VA) were placed in their respective sides, wells were capped, and the plate was placed in the rotator and allowed to dialyze for 22 h. […] Concentrations of analyte from each side of the dialysis plate were determined by LC/MS/MS on a Waters Xevo TQ instrument as described above using positive electrospray ionization. […] The fraction unbound was calculated by dividing the drug concentration in the buffer side of the dialysis plate by the drug concentration in the plasma side.
(In general: In equilibrium dialysis free small molecules cross a membrane that holds back macromolecules.)

Data set [4] is described as follows: Stability in mouse liver microsomes. The class given is in vitro ADME. The procedure:
(§5) The clearance of compound (Id) in mouse or human liver microsomes was determined at 37° C. Both mouse and human liver microsomes were obtained from Merck KGaA, (Darmstadt, Germany), Cat. No. M9441 (Mouse liver microsomes) and M0317 (Human liver microsomes). Assays were conducted in triplicate in 96-deep well polypropylene plates. […] At five time points, reaction mixture aliquots were transferred to 96-shallow well stop plates on ice containing acetonitrile with 0.1 μM propafenone. […] Standard curves for test compounds were generated using 5 concentrations in triplicate that were processed as above but with zero incubation time. Stop plates were centrifuged at 2000 g for 10 min and then supernatant aliquots were transferred to a Waters Aquity® UPLC 700 μL 96-well sample plate with cap mat (Waters, Milford, MA). The amount of compound remaining in the supernatant was quantified by LC/MS/MS using a Waters Xevo TQ MS (electrospray positive mode) coupled to a Waters Aquity® UPLC (BEH column, C18). Propafenone was used as the internal standard. GraphPad® Prism v 5.04 was used for nonlinear fitting of time course data to generate t1/2 values.
(In general: Microsomes from liver hold many membrane-bound enzymes, among them those of drug oxidation.)

For data set [5], the system named is Kasumi-1. The experiment in a line: CellTiter-Blue cell viability assay, Kasumi-1. It counts as cell-based, human. The conditions noted are these: 48 h, mean of triplicates. The procedure:
as §3, §4

Data set [6] has as its system MV4-11. In words: CellTiter-Blue cell viability assay, MV4-11. The class given is cell-based, human. The following applies: 48 h, mean of triplicates. The procedure:
as §3, §4

Data set [7] relates to NB4. The experiment in a line: CellTiter-Blue cell viability assay, NB4. The class given is cell-based, human. The conditions noted are these: 48 h, mean of triplicates. The procedure: as §3, §4
Data set [8] deals with KG1a. In words: CellTiter-Blue cell viability assay, KG1a. The following applies: 48 h, mean of triplicates. It counts as cell-based, human. The procedure:
as §3, §4

Data set [9] can be described thus: Stability in human liver microsomes. The class given is in vitro ADME. The procedure: as §5
Data set [10] deals with HT29. In words: CellTiter-Blue cell viability assay, HT29. The conditions noted are these: 50% cell viability vs untreated, mean of triplicates. It counts as cell-based, human. The procedure: as §1, §2
For data set [11] the following is noted: previous study profiling; cited from earlier work.
The mark [12] stands for this setting: without NADPH, percent remaining after 60 min incubation.
Where [13] appears, read: without NADPH, percent remaining after 60 min incubation, listed as compound (Id).
[14] abbreviates: human liver microsomes, in presence of NADPH, 37° C.

With `CC1=N/C(=C\c2ccc(C)o2)C(=O)N1c1ccc(CC(=O)NCc2ccccc2)cc1` [Compound (Id), 2-Methyl-4-(5-methyl-2-furyl)methylene-1-[4-(benzylaminocarbonylmethyl)phenyl]-5-oxo-1H-imidazole], the half-inhibitory concentration (IC50) in data set [1] (Homo sapiens, DLD-1) was determined as 1350 nM; in data set [2] (Homo sapiens, K562), 437 nM; in [5] (Homo sapiens, Kasumi 1) it was 221 nM; in data set [6] (Homo sapiens, MV4-11), 254 nM; in data set [7] (Homo sapiens, NB-4), 189 nM; in [8] (Homo sapiens, KG-1a), 488 nM. Besides, the IC50 in data set [10] (48 h) came to 1340 nM; in data set [10] (Homo sapiens, HT-29, 48 h) it was 1340 nM. Besides, the fraction unbound at 22 h, 10 μM in data set [3] (CD-1, mouse, plasma, pH 7.4, equilibrium dialysis 22 h, read-out: Mouse PPB (% free)) was found to be 0.032. The half-life in [4] (male, CD-1, mouse liver microsomes, in presence of NADPH, 37° C., read-out: Stability MLM t1/2) is 16.6 min; in data set [9] (human, liver microsomes, human liver microsomes, in presence of NADPH, 37° C., read-out: Stability HLM t1/2), 30 min. In addition, the “Mic. Ctrl. Mouse % @60 min” value is 90% in data set [4] (setting [12]) and “did not change” in data set [4] (setting [13]). Also, the “Stability HLM t1/2” value in data set [9] (setting [14]) stood at 30.3 min. For the same compound, the “Mic. Ctrl. Human % @60 min” value in [9] (setting [12]) is 118%; in data set [9] (setting [13]), “did not change”.

With `COc1ccc(/C=C2\N=C(C)N(c3ccc(CC(=O)NCc4ccccc4)cc3)C2=O)cc1` [KIM-161, reference compound], the IC50 was 1730 nM in data set [1]; 282 nM in [2]; 166 nM in [5]; 361 nM in data set [6]; 148 nM in data set [7]; 283 nM in data set [8]. This compound displayed an IC50 in data set [10] (48 h) of 1840 nM. Besides, in [11], the maximum aqueous solubility was 19.9 µM. Also, the “Mouse PPB (% free)” value in data set [3] (10 μM, equilibrium dialysis 22 h) is listed as 5%. Besides, in data set [4], the “Mic. Ctrl. Mouse % @60 min” value was determined as 112%. In addition, the “Stability MLM t1/2” value in data set [4] (mouse liver microsomes, in presence of NADPH, 37° C.) is on record as 14.8 min. For the same compound, in data set [9], the “Mic. Ctrl. Human % @60 min” value was determined as 113%. Further, the “Stability HLM t1/2” value in data set [9] (setting [14]) turned out to be 22.9 min.

In general, IC50 refers to the concentration at which inhibition is half-maximal.
